# Source: PubChem BioAssay (NCI)
#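 1) Cells in 96-well plates. 2) Compound, 48 h, 5 concentrations. 3) Linear interpolation between surrounding doses. 4) Unreached endpoint = highest concentration. GI50 is the concentration that inhibits growth by half. TGI marks complete inhibition of growth.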
# Columns and labels:
# Test in all cases: inhibition of tumour cell growth, NCI panel, 48 h
# UACC-62 melanoma = tested on: UACC-62 melanoma
# SW-620 colon = tested on: SW-620 colon
# NCI/ADR-RES ovarian = tested on: NCI/ADR-RES ovarian
# HCT-116 colon = tested on: HCT-116 colon
# SR leukemia = tested on: SR leukemia
# MCF7 breast = tested on: MCF7 breast
# HCC-2998 colon = tested on: HCC-2998 colon
# CCRF-CEM leukemia = tested on: CCRF-CEM leukemia
# SF-539 CNS = tested on: SF-539 CNS
# SK-MEL-28 melanoma = tested on: SK-MEL-28 melanoma
# RPMI-8226 leukemia = tested on: RPMI-8226 leukemia
# SK-MEL-2 melanoma = tested on: SK-MEL-2 melanoma
# UO-31 renal = tested on: UO-31 renal
# TK-10 renal = tested on: TK-10 renal
# COLO 205 colon = tested on: COLO 205 colon
# RXF 393 renal = tested on: RXF 393 renal
# M14 melanoma = tested on: M14 melanoma
# HOP-92 NSCLC = tested on: HOP-92 NSCLC
# LOX IMVI melanoma = tested on: LOX IMVI melanoma
# A498 renal = tested on: A498 renal
# MDA-MB-435 = tested on: MDA-MB-435
# HL-60(TB) leukemia = tested on: HL-60(TB) leukemia
# U251 CNS = tested on: U251 CNS
# 786-0 renal = tested on: 786-0 renal
# SNB-75 CNS = tested on: SNB-75 CNS
# SK-MEL-5 melanoma = tested on: SK-MEL-5 melanoma
# MALME-3M melanoma = tested on: MALME-3M melanoma
# MDA-MB-231 breast = tested on: MDA-MB-231 breast
# NCI-H460 lung = tested on: NCI-H460 lung
# K-562 leukemia = tested on: K-562 leukemia
# MOLT-4 leukemia = tested on: MOLT-4 leukemia
# NCI-H522 lung = tested on: NCI-H522 lung
# UACC-257 melanoma = tested on: UACC-257 melanoma
# HS 578T breast = tested on: HS 578T breast
# PC-3 prostate = tested on: PC-3 prostate
# CAKI-1 renal = tested on: CAKI-1 renal
# HT29 colon = tested on: HT29 colon
# SF-295 CNS = tested on: SF-295 CNS
# SK-OV-3 ovarian = tested on: SK-OV-3 ovarian
# ACHN renal = tested on: ACHN renal
# SNB-19 CNS = tested on: SNB-19 CNS
# OVCAR-3 ovarian = tested on: OVCAR-3 ovarian
# NCI-H226 lung = tested on: NCI-H226 lung
# KM12 colon = tested on: KM12 colon
# T-47D breast = tested on: T-47D breast
# OVCAR-8 ovarian = tested on: OVCAR-8 ovarian
# SF-268 CNS = tested on: SF-268 CNS
# OVCAR-4 ovarian = tested on: OVCAR-4 ovarian
# A549 NSCLC = tested on: A549 NSCLC
# EKVX NSCLC = tested on: EKVX NSCLC
# HCT-15 colon = tested on: HCT-15 colon
# OVCAR-5 ovarian = tested on: OVCAR-5 ovarian
# HOP-62 NSCLC = tested on: HOP-62 NSCLC
# DU-145 prostate = tested on: DU-145 prostate
# BT-549 breast = tested on: BT-549 breast
# IGROV1 ovarian = tested on: IGROV1 ovarian
# NCI-H23 lung = tested on: NCI-H23 lung
# SN12C renal = tested on: SN12C renal
compound,measurement,setting,value
CC1COc2c(N3CCN(C)CC3)c(F)cc3c(=O)c(C(=O)N/N=C/c4cc[nH]c4)cn1c23 (configuration not stated),GI50,UACC-62 melanoma,1.7 µM
same,TGI,UACC-62 melanoma,3.16 µM
same,GI50,SW-620 colon,1.3 µM
same,TGI,SW-620 colon,2.62 µM
same,GI50,NCI/ADR-RES ovarian,> 100 µM
same,TGI,NCI/ADR-RES ovarian,> 100 µM
same,GI50,HCT-116 colon,0.712 µM
same,TGI,HCT-116 colon,2 µM
same,GI50,SR leukemia,0.841 µM
same,TGI,SR leukemia,3.16 µM
same,GI50,MCF7 breast,0.417 µM
same,TGI,MCF7 breast,1.65 µM
same,GI50,HCC-2998 colon,0.518 µM
same,TGI,HCC-2998 colon,1.89 µM
same,GI50,CCRF-CEM leukemia,0.959 µM
same,TGI,CCRF-CEM leukemia,2.79 µM
same,GI50,SF-539 CNS,1.28 µM
same,TGI,SF-539 CNS,2.61 µM
same,GI50,SK-MEL-28 melanoma,1.47 µM
same,TGI,SK-MEL-28 melanoma,2.83 µM
same,GI50,RPMI-8226 leukemia,2.19 µM
same,TGI,RPMI-8226 leukemia,4.58 µM
same,GI50,SK-MEL-2 melanoma,1.57 µM
same,TGI,SK-MEL-2 melanoma,3.01 µM
same,GI50,UO-31 renal,2.71 µM
same,TGI,UO-31 renal,> 100 µM
same,GI50,TK-10 renal,5.4 µM
same,TGI,TK-10 renal,96.1 µM
same,GI50,COLO 205 colon,1.27 µM
same,TGI,COLO 205 colon,2.6 µM
same,GI50,RXF 393 renal,1.06 µM
same,TGI,RXF 393 renal,2.35 µM
same,GI50,M14 melanoma,1.67 µM
same,TGI,M14 melanoma,3.12 µM
same,GI50,HOP-92 NSCLC,0.497 µM
same,TGI,HOP-92 NSCLC,36 µM
same,GI50,LOX IMVI melanoma,0.715 µM
same,TGI,LOX IMVI melanoma,2.07 µM
same,GI50,A498 renal,2.22 µM
same,TGI,A498 renal,> 100 µM
same,GI50,MDA-MB-435,1.52 µM
same,TGI,MDA-MB-435,2.91 µM
same,GI50,HL-60(TB) leukemia,0.674 µM
same,TGI,HL-60(TB) leukemia,2.59 µM
same,GI50,U251 CNS,0.614 µM
same,TGI,U251 CNS,1.98 µM
same,GI50,786-0 renal,1.42 µM
same,TGI,786-0 renal,2.85 µM
same,GI50,SNB-75 CNS,1.48 µM
same,TGI,SNB-75 CNS,3.47 µM
same,GI50,SK-MEL-5 melanoma,1.4 µM
same,TGI,SK-MEL-5 melanoma,2.71 µM
same,GI50,MALME-3M melanoma,1.04 µM
same,TGI,MALME-3M melanoma,2.57 µM
same,GI50,MDA-MB-231 breast,1.48 µM
same,TGI,MDA-MB-231 breast,3 µM
same,GI50,NCI-H460 lung,0.767 µM
same,TGI,NCI-H460 lung,2.08 µM
same,GI50,K-562 leukemia,0.699 µM
same,TGI,K-562 leukemia,2.35 µM
same,GI50,MOLT-4 leukemia,0.502 µM
same,TGI,MOLT-4 leukemia,2.1 µM
same,GI50,NCI-H522 lung,1.24 µM
same,TGI,NCI-H522 lung,2.64 µM
same,GI50,UACC-257 melanoma,1.64 µM
same,TGI,UACC-257 melanoma,3.12 µM
COc1ccc(C(C)=C(c2ccc(OCCN3CCCCCC3)cc2)c2ccc(OCCN3CCCCCC3)cc2)cc1,GI50,UACC-62 melanoma,0.869 µM
same,TGI,UACC-62 melanoma,2.05 µM
same,GI50,HS 578T breast,1.12 µM
same,TGI,HS 578T breast,4.56 µM
same,GI50,PC-3 prostate,1.72 µM
same,TGI,PC-3 prostate,4.82 µM
same,GI50,SW-620 colon,0.45 µM
same,TGI,SW-620 colon,1.48 µM
same,GI50,NCI/ADR-RES ovarian,2.07 µM
same,TGI,NCI/ADR-RES ovarian,4.55 µM
same,GI50,HCT-116 colon,0.369 µM
same,TGI,HCT-116 colon,1.11 µM
same,GI50,CAKI-1 renal,1.39 µM
same,TGI,CAKI-1 renal,3.73 µM
same,GI50,SR leukemia,0.306 µM
same,TGI,SR leukemia,0.773 µM
same,GI50,MCF7 breast,0.177 µM
same,TGI,MCF7 breast,0.579 µM
same,GI50,HT29 colon,0.545 µM
same,TGI,HT29 colon,2.1 µM
same,GI50,HCC-2998 colon,0.54 µM
same,TGI,HCC-2998 colon,2 µM
same,GI50,SF-295 CNS,0.447 µM
same,TGI,SF-295 CNS,1.31 µM
same,GI50,CCRF-CEM leukemia,0.503 µM
same,TGI,CCRF-CEM leukemia,4.32 µM
same,GI50,SK-OV-3 ovarian,2.55 µM
same,TGI,SK-OV-3 ovarian,5.23 µM
same,GI50,SF-539 CNS,1.02 µM
same,TGI,SF-539 CNS,2.99 µM
same,GI50,SK-MEL-28 melanoma,0.312 µM
same,TGI,SK-MEL-28 melanoma,0.593 µM
same,GI50,ACHN renal,2.09 µM
same,TGI,ACHN renal,4.37 µM
same,GI50,SNB-19 CNS,1.36 µM
same,TGI,SNB-19 CNS,4.02 µM
same,GI50,RPMI-8226 leukemia,0.443 µM
same,TGI,RPMI-8226 leukemia,1.09 µM
same,GI50,SK-MEL-2 melanoma,2.95 µM
same,TGI,SK-MEL-2 melanoma,6.34 µM
same,GI50,OVCAR-3 ovarian,1.87 µM
same,TGI,OVCAR-3 ovarian,4.07 µM
same,GI50,UO-31 renal,1.78 µM
same,TGI,UO-31 renal,3.97 µM
same,GI50,NCI-H226 lung,2.32 µM
same,TGI,NCI-H226 lung,5.33 µM
same,GI50,TK-10 renal,3.12 µM
same,TGI,TK-10 renal,6.73 µM
same,GI50,COLO 205 colon,0.375 µM
same,TGI,COLO 205 colon,0.948 µM
same,GI50,RXF 393 renal,0.646 µM
same,TGI,RXF 393 renal,2.56 µM
same,GI50,KM12 colon,1.22 µM
same,TGI,KM12 colon,4.01 µM
same,GI50,M14 melanoma,0.27 µM
same,TGI,M14 melanoma,0.515 µM
same,GI50,T-47D breast,0.628 µM
same,TGI,T-47D breast,4.55 µM
same,GI50,HOP-92 NSCLC,0.843 µM
same,TGI,HOP-92 NSCLC,3.89 µM
same,GI50,LOX IMVI melanoma,0.177 µM
same,TGI,LOX IMVI melanoma,0.427 µM
same,GI50,OVCAR-8 ovarian,2.62 µM
same,TGI,OVCAR-8 ovarian,6.82 µM
same,GI50,A498 renal,2.2 µM
same,TGI,A498 renal,4.41 µM
same,GI50,MDA-MB-435,0.422 µM
same,TGI,MDA-MB-435,1.17 µM
same,GI50,SF-268 CNS,1.71 µM
same,TGI,SF-268 CNS,5.07 µM
same,GI50,OVCAR-4 ovarian,2.43 µM
same,TGI,OVCAR-4 ovarian,5.9 µM
same,GI50,A549 NSCLC,1.23 µM
same,TGI,A549 NSCLC,3.85 µM
same,GI50,HL-60(TB) leukemia,1.02 µM
same,TGI,HL-60(TB) leukemia,2.32 µM
same,GI50,EKVX NSCLC,2.34 µM
same,TGI,EKVX NSCLC,7.2 µM
same,GI50,HCT-15 colon,0.488 µM
same,TGI,HCT-15 colon,1.97 µM
same,GI50,U251 CNS,0.524 µM
same,TGI,U251 CNS,1.83 µM
same,GI50,OVCAR-5 ovarian,2.44 µM
same,TGI,OVCAR-5 ovarian,8.26 µM
same,GI50,786-0 renal,0.606 µM
same,TGI,786-0 renal,1.55 µM
same,GI50,SNB-75 CNS,2.06 µM
same,TGI,SNB-75 CNS,5.23 µM
same,GI50,HOP-62 NSCLC,1.07 µM
same,TGI,HOP-62 NSCLC,3.49 µM
same,GI50,DU-145 prostate,2.28 µM
same,TGI,DU-145 prostate,5.73 µM
same,GI50,BT-549 breast,2.03 µM
same,TGI,BT-549 breast,4.21 µM
same,GI50,IGROV1 ovarian,1.87 µM
same,TGI,IGROV1 ovarian,4.28 µM
same,GI50,SK-MEL-5 melanoma,1.31 µM
same,TGI,SK-MEL-5 melanoma,3.47 µM
same,GI50,MALME-3M melanoma,0.3 µM
same,TGI,MALME-3M melanoma,0.616 µM
same,GI50,MDA-MB-231 breast,1.36 µM
same,TGI,MDA-MB-231 breast,3.95 µM
same,GI50,NCI-H460 lung,0.635 µM
same,TGI,NCI-H460 lung,2.18 µM
same,GI50,NCI-H23 lung,2.67 µM
same,TGI,NCI-H23 lung,9.52 µM
same,GI50,K-562 leukemia,0.338 µM
same,TGI,K-562 leukemia,0.825 µM
same,GI50,MOLT-4 leukemia,0.436 µM
same,TGI,MOLT-4 leukemia,1.29 µM
same,GI50,SN12C renal,2.09 µM
same,TGI,SN12C renal,4.8 µM
same,GI50,NCI-H522 lung,2.65 µM
same,TGI,NCI-H522 lung,6.1 µM
same,GI50,UACC-257 melanoma,0.587 µM
same,TGI,UACC-257 melanoma,1.59 µM
